{"source": "patent US7279465B2", "about": "“Use of amphiphilic nucleoside phosphonoformic acid derivatives for the treatment of viral infectious diseases” (Eberhard-Karls-Universitaet, priority 2002, dated 2007)", "key": {"[1]": {"tested_on": "GCV-resistant/PFA-sensitive HCMV strain", "assay": "microbe, parasite or virus in culture", "format": "cell-based, human cytomegalovirus (HCMV)", "conditions": "for average plaque numbers/microculture: GCV-resistant, PFA/CDV-sensitive strain", "source_text": "(§1) Cocultures of infected and uninfected human foreskin fibroblasts (HFFs) were used for this purpose.\n(§2) The implementation of the assay was described for the first time in Prix, et al., “A simplified assay for screening of drug resistance of cell-associated cytomegalovirus strains,” Journal of Clinical Virology (1998) 11:29-37, and Prix, et al., “Comprehensive restriction analysis of the UL97 region allows early detection of ganciclovir-resistant human cytomegalovirus in an immunocompromised child,” Journal of Infectious Diseases (1999) 180:491-495, and is briefly described below.\n(§3) HCMV primary isolates on HFF cells in tube culture were passaged on subconfluent monolayers of HFF grown in small cell culture flasks (25 cm^2), and cultured. When an approx. 20-40% cytopathic effect (CPE) had been reached, the cells were washed with phosphate-buffered saline (PBS) and the monolayer was removed by trypsinization. After the trypsin had been inactivated, the pellet was taken up in Eagle's minimal essential medium (MEM)-10% FCS (foetal calf serum) and subjected to mild filtration for the purpose of separating off cell aggregates.\n(§4) In parallel, uninfected HFF cells were cultured on 175 cm^2 dishes, washed, trypsinized and, after further purification steps, taken up in MEM-10% FCS.\nIn order to prepare cocultures, the infected cells were mixed with the uninfected cells in the following manner: 2.5×10^4 uninfected cells/100 μl were mixed, in two different ratios, with 500 and 1000 infected cells/100 μl. In each case 100 μl of each of these dilution steps were pipetted in triplicate into a 96-well microtitre plate. In order to ensure that the cells adhered to the microtitre plate bottom, the cocultures were incubated for at least 4 h before the medium was carefully removed.\nThe cultures were then incubated for 4 days so as to enable the viruses from the infected single cells to spread in the form of plaque formation by infecting the neighbouring cells.\nFollowing the 4-day incubation, the medium was carefully poured off and the microcultures were permeabilized, and fixed, with 200 μl of ice-cold (−20° C.) methanol. After 20 min, the methanol was removed and the cells were washed twice with PBS.\n(§5) The primary antibody (anti-IE1-pp72, E13 clone, Paesel & Lorei, Germany), which is directed against the HCMV immediate early antigen (UL123) of HCMV, was then added. […] After the peroxidase/H2O2 substrate had been added, the HCMV immediate early antigen was detected, under a microscope, in the nuclei of the infected fibroblasts as a result of the in situ brown staining.\n6.25 μM of the structurally identical, ethyl-esterified compound N4 were also included.\nIn this experiment, 500 HCMV-infected HFF cells/microculture were used.\nFor correctly evaluating the plates, the norm was applied that a plaque had to consist of a group of cells containing at least 10 individual cells in order to be included in the count."}, "[2]": {"tested_on": "multiresistant HCMV strain (GCV/PFA/CDV-resistant)", "assay": "Modified cell-adapted plaque reduction assay (HFF cocultures), multiresistant HCMV strain", "format": "cell-based, human cytomegalovirus (HCMV)", "conditions": "for average plaque numbers: 1500 HCMV-infected HFF cells/microculture, multiresistant strain", "source_text": "as §1, §2, §3, §4\n[…] In each case 100 μl of each of these dilution steps were pipetted in triplicate into a 96-well microtitre plate. In order to ensure that the cells adhered to the microtitre plate bottom, the cocultures were incubated for at least 4 h before the medium was carefully removed. […]\nas §5, with “staining. […]” for “staining.”"}, "[3]": {"tested_on": "human prepuce fibroblasts", "assay": "Cytotoxic effect in vitro towards fibroblasts", "format": "cell-based", "method": "Since N3 was determined to have a cytotoxic effect in vitro towards human prepuce fibroblasts only at concentrations of >125 μM, adequate therapeutic breadth for in vivo use consequently also exists."}, "[4]": {"tested_on": "HCMV", "assay": "Preliminary screening of antiviral effect in vitro", "format": "cell-based, human cytomegalovirus (HCMV)", "conditions": "compared with unesterified compound"}}, "note": "Where “and” joins values, the source holds several entries; their conditions need not be identical. Identical values can stand only once. Like-named read-outs stand apart in the source and are kept apart here.", "data": [{"compound": "3′-azido-2′,3′-dideoxythymidylyl-(5′→2)-1-O-octadecyl-rac-glycerol-3-(hydroxycarbonyl)-phosphonate [N3]", "values": [{"measurement": "average plaque numbers/microculture", "setting": "[1]; 6.25 μM N3, 500 HCMV-infected HFF cells/microculture", "result": "5.7 and 7.5"}, {"measurement": "ID50 lower than that for GCV (fold)", "setting": "[1]; GCV-resistant strain, 1000 infected cells/microculture", "result": "approx. 11 ×"}, {"measurement": "antiviral activity higher than that of PFA (fold)", "setting": "[1]; GCV-resistant/PFA-sensitive strain, 1000 infected HFF cells/microculture", "result": "approx. 40 ×"}, {"measurement": "average plaque numbers", "setting": "[2]; N3 (6.25 μM recorded)", "result": 2.3}, {"measurement": "concentration with cytotoxic effect in vitro", "setting": "[3]", "result": "> 125", "unit": "µM"}]}, {"compound": "Nc1nc2c(ncn2COC(CO)CO)c(=O)[nH]1", "note": "[GCV, 9-[1,3-dihydroxy-2-propoxymethyl]guanine, reference compound]", "values": [{"measurement": "average plaque numbers/microculture", "setting": "[1]; 5 μM GCV, 500 HCMV-infected HFF cells/microculture", "result": 19.5}, {"measurement": "IC50", "setting": "[1]; Human betaherpesvirus 5, Table 1, GCVres/PFAsens/CDVsens strain, Niz = 1000 infected cells/microculture, read-out: ID50 (95% CI)", "result": 14.3, "unit": "µM"}]}, {"compound": "O=C(O)P(=O)(O)O.[Na]", "note": "[PFA, sodium-phosphonoformic acid, reference compound]", "values": [{"measurement": "number of plaques", "setting": "[1]; 300 μM PFA, 500 HCMV-infected HFF cells/microculture, negative control 37.9", "result": 5}, {"measurement": "IC50", "setting": "[1]; Human betaherpesvirus 5, read-out: ID50 (95% CI)", "result": 64.8, "unit": "µM"}, {"measurement": "average plaque numbers", "setting": "[2]; PFA (300 μM recorded)", "result": 20.5}]}, {"compound": "ethyl 3′-azido-2′,3′-dideoxythymidylyl-(5′→2)-1-O-octadecyl-rac-glycerol-3-(hydroxycarbonyl)-phosphonate [N4]", "values": [{"measurement": "antiviral effect in vitro", "setting": "[4]", "result": "markedly reduced antiviral effect"}, {"measurement": "antiviral activity against multiresistant strains", "setting": "[2]; multiresistant strains", "result": "did not exhibit any antiviral activity"}]}]}
